Reference: PubChem BioAssay (NCI)
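Grown in 96-well plates, cells were treated for 48 hours with each compound at five concentrations. Insufficient inhibition: endpoint recorded as highest concentration tested. At the TGI there is no net growth.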

Tests used:
Assay in all cases: DTP human tumour cell line panel, 48 h
RPMI-8226 leukemia = tested on: RPMI-8226 leukemia
HL-60(TB) leukemia = tested on: HL-60(TB) leukemia
HCC-2998 colon = tested on: HCC-2998 colon
A549 NSCLC = tested on: A549 NSCLC
ACHN renal = tested on: ACHN renal
M19-MEL melanoma = tested on: M19-MEL melanoma
HT29 colon = tested on: HT29 colon
NCI-H23 lung = tested on: NCI-H23 lung
K-562 leukemia = tested on: K-562 leukemia
SW-620 colon = tested on: SW-620 colon
DMS 114 small cell lung = tested on: DMS 114 small cell lung
SF-268 CNS = tested on: SF-268 CNS
DLD-1 colon = tested on: DLD-1 colon
SF-295 CNS = tested on: SF-295 CNS
CCRF-CEM leukemia = tested on: CCRF-CEM leukemia
COLO 205 colon = tested on: COLO 205 colon
786-0 renal = tested on: 786-0 renal
SK-MEL-5 melanoma = tested on: SK-MEL-5 melanoma
CAKI-1 renal = tested on: CAKI-1 renal
HCT-116 colon = tested on: HCT-116 colon
U251 CNS = tested on: U251 CNS
OVCAR-4 ovarian = tested on: OVCAR-4 ovarian
NCI-H522 lung = tested on: NCI-H522 lung
SR leukemia = tested on: SR leukemia
EKVX NSCLC = tested on: EKVX NSCLC
LOX IMVI melanoma = tested on: LOX IMVI melanoma
DMS 273 small cell lung = tested on: DMS 273 small cell lung
SN12C renal = tested on: SN12C renal
UO-31 renal = tested on: UO-31 renal
UACC-257 melanoma = tested on: UACC-257 melanoma
HCT-15 colon = tested on: HCT-15 colon
SK-MEL-28 melanoma = tested on: SK-MEL-28 melanoma
TK-10 renal = tested on: TK-10 renal
MOLT-4 leukemia = tested on: MOLT-4 leukemia
HOP-62 NSCLC = tested on: HOP-62 NSCLC
OVCAR-8 ovarian = tested on: OVCAR-8 ovarian
OVCAR-5 ovarian = tested on: OVCAR-5 ovarian
NCI-H460 lung = tested on: NCI-H460 lung
SNB-75 CNS = tested on: SNB-75 CNS
M14 melanoma = tested on: M14 melanoma
KM12 colon = tested on: KM12 colon
XF 498 CNS = tested on: XF 498 CNS
SNB-19 CNS = tested on: SNB-19 CNS
MALME-3M melanoma = tested on: MALME-3M melanoma
NCI-H226 lung = tested on: NCI-H226 lung
SF-539 CNS = tested on: SF-539 CNS
SNB-78 CNS = tested on: SNB-78 CNS
OVCAR-3 ovarian = tested on: OVCAR-3 ovarian
HOP-92 NSCLC = tested on: HOP-92 NSCLC
HOP-18 NSCLC = tested on: HOP-18 NSCLC
LXFL 529 NSCLC = tested on: LXFL 529 NSCLC
UACC-62 melanoma = tested on: UACC-62 melanoma
KM20L2 colon = tested on: KM20L2 colon

In the case of Nc1ccc2ncc(Nc3ccc(F)cc3)nc2c1, the TGI (RPMI-8226 leukemia) is reported as > 100000 nM, the TGI (HL-60(TB) leukemia) is reported as > 100000 nM and the TGI (HCC-2998 colon) is reported as > 100000 nM. The TGI (A549 NSCLC) was > 100000 nM, the TGI (ACHN renal) was > 100000 nM and the TGI (M19-MEL melanoma) was > 100000 nM. For the same compound, the TGI (HT29 colon) was > 100000 nM, the TGI (NCI-H23 lung) was > 100000 nM and the TGI (K-562 leukemia) was > 100000 nM. The TGI (SW-620 colon) was > 100000 nM, the TGI (DMS 114 small cell lung) was > 100000 nM and the TGI (SF-268 CNS) was > 100000 nM. For the same compound, the TGI (DLD-1 colon) was > 100000 nM, the TGI (SF-295 CNS) was > 100000 nM and the TGI (CCRF-CEM leukemia) was > 100000 nM. The TGI (COLO 205 colon) was > 100000 nM, the TGI (786-0 renal) was > 100000 nM and the TGI (SK-MEL-5 melanoma) was > 100000 nM. The TGI (CAKI-1 renal) was > 100000 nM, the TGI (HCT-116 colon) was > 100000 nM and the TGI (U251 CNS) was > 100000 nM. The TGI (OVCAR-4 ovarian) was > 100000 nM, the TGI (NCI-H522 lung) was > 100000 nM and the TGI (SR leukemia) was > 100000 nM. For the same compound, the TGI (EKVX NSCLC) was > 100000 nM, the TGI (LOX IMVI melanoma) was > 100000 nM and the TGI (DMS 273 small cell lung) was > 100000 nM. The TGI (SN12C renal) was > 100000 nM, the TGI (UO-31 renal) was > 100000 nM and the TGI (UACC-257 melanoma) was > 100000 nM. For the same compound, the TGI (HCT-15 colon) was > 100000 nM, the TGI (SK-MEL-28 melanoma) was > 100000 nM and the TGI (TK-10 renal) was > 100000 nM. For the same compound, the TGI (MOLT-4 leukemia) was > 100000 nM, the TGI (HOP-62 NSCLC) was > 100000 nM and the TGI (OVCAR-8 ovarian) was > 100000 nM. For the same compound, the TGI (OVCAR-5 ovarian) was > 100000 nM, the TGI (NCI-H460 lung) was > 100000 nM and the TGI (SNB-75 CNS) was > 100000 nM. For the same compound, the TGI (M14 melanoma) was > 100000 nM, the TGI (KM12 colon) was > 100000 nM and the TGI (XF 498 CNS) was > 100000 nM. The TGI (SNB-19 CNS) was > 100000 nM, the TGI (MALME-3M melanoma) was > 100000 nM and the TGI (NCI-H226 lung) was > 100000 nM. For the same compound, the TGI (SF-539 CNS) was > 100000 nM, the TGI (SNB-78 CNS) was > 100000 nM and the TGI (OVCAR-3 ovarian) was > 100000 nM.

With COc1ccc2nc3ccccc3c(NCCCCCN(CCCl)CCCl)c2c1 the TGI (RPMI-8226 leukemia) was 206 nM, the TGI (HL-60(TB) leukemia) was 88.1 nM and the TGI (HCC-2998 colon) was 230 nM. For the same compound, the TGI (A549 NSCLC) was 675 nM, the TGI (ACHN renal) was 748 nM and the TGI (HT29 colon) was 2840 nM. For the same compound, the TGI (NCI-H23 lung) was 986 nM, the TGI (K-562 leukemia) was 502 nM and the TGI (SW-620 colon) was 1190 nM. The TGI (SF-268 CNS) was 329 nM, the TGI (DLD-1 colon) was 793 nM and the TGI (SF-295 CNS) was 1210 nM. The TGI (CCRF-CEM leukemia) was 118 nM, the TGI (COLO 205 colon) was 429 nM and the TGI (786-0 renal) was 137 nM. For the same compound, the TGI (SK-MEL-5 melanoma) was 433 nM, the TGI (HOP-92 NSCLC) was 719 nM and the TGI (U251 CNS) was 500 nM. The TGI (OVCAR-4 ovarian) was 771 nM, the TGI (NCI-H522 lung) was 17 nM and the TGI (SR leukemia) was 10.1 nM. The TGI (EKVX NSCLC) was 4100 nM, the TGI (LOX IMVI melanoma) was 376 nM and the TGI (DMS 273 small cell lung) was 343 nM. For the same compound, the TGI (HOP-18 NSCLC) was > 27300 nM, the TGI (UO-31 renal) was 418 nM and the TGI (SK-MEL-28 melanoma) was 1190 nM. It also gave a TGI (TK-10 renal) of 1380 nM, a TGI (HOP-62 NSCLC) of 525 nM and a TGI (OVCAR-8 ovarian) of 2200 nM. It also gave a TGI (OVCAR-5 ovarian) of 1350 nM, a TGI (NCI-H460 lung) of 192 nM and a TGI (SNB-75 CNS) of 911 nM. It also gave a TGI (LXFL 529 NSCLC) of 810 nM, a TGI (M14 melanoma) of 184 nM and a TGI (KM12 colon) of 2140 nM. It also gave a TGI (XF 498 CNS) of 71.7 nM, a TGI (SNB-19 CNS) of 914 nM and a TGI (UACC-62 melanoma) of 1800 nM. It also gave a TGI (KM20L2 colon) of 1020 nM, a TGI (NCI-H226 lung) of 801 nM and a TGI (SNB-78 CNS) of 2960 nM. The TGI (OVCAR-3 ovarian) was 963 nM.
